Data on nine molecules can be found in patent publication US20060111335A1, “Photoactivated anti-viral and anti-cancer agent” (priority 2002, published 2006).

A short description of series [1]: Reversed phase HPLC elution on C8 column as measure of hydrophobicity. In kind it is physicochemical. The protocol:
Reversed phase high performance liquid chromatography (RP-HPLC) was carried out on C8 columns. Compounds were tested using 20%, 30% and 45% acetonitrile in 100 mM ammonium acetate at pH 5.4 for elution on a C8 column, with the intention of achieving an elution time of about 15 minutes. It was expected that the more hydrophobic a compound, the higher the acetonitrile content one would need for the eluent.

In series [2] the test system is φX-174 plasmid DNA. The series can be described thus: Photonicking of φX-174 plasmid DNA, gel electrophoresis. In kind it is biochemical. The conditions noted are these: for photonicking of φX-174 plasmid DNA: Example IX, dark and upon exposure to light. On the procedure:
Photolysis with φX-174 Plasmid DNA. Metal complex solutions (with or without quenchers) were saturated with oxygen or argon prior to irradiation. The solutions were further degassed after being mixed with the plasmid. The final solution concentrations were: DPPZPHEN ([…]), φX-174 plasmid DNA (205 μM in base pairs), superoxide dismutase (25 μg/mL), 2-propanol (0.5 M), mannitol (6.25 mM), histidine (8 mM).
Experiments were conducted as described in Example X to evaluate the amount photonicking that occurred in the dark and upon exposure to light for 37TMBP, 56TMBP, OCTBP, BISNMe2, TMOBP, TIOBP, TPBP, BISTAP and BISDPPZ.

Series [3] in a line: Dark thermal aquation and thermal base hydrolysis. It is filed as physicochemical. The note with it: 80° C. with 10% NaOH. The text has this:
A dissociation/addition mechanism is generally accepted as responsible for the substitution chemistry associated with a hexacoordinated Rh(III) ligand field triplet (Weiland et al., Inorg. Chem., 25:4893 (1986)). The dissociation step is due to the promotion of an electron from the t2g orbital to the eg orbital, which leads to significant weakening of the metal ligand bonds. (Hipps et al., Inorg. Chem., 13:1544 (1974)).

A short description of series [4]: Photodestruction (photoaquation) with visible light >500 nm, HPLC analysis. The conditions noted are these: 0.1 mM aqueous, 8 hours under argon. In kind it is physicochemical. On the procedure: Aqueous solutions (3 mL, 0.1 mM) of the Rh complexes were irradiated for 8 hours under argon using a 450 W Hanovia medium pressure mercury lamp filtered through a uranium yellow glass (cut-off<330 nm) and a 1.5 cm 0.5% (w/v) aqueous solution of K2Cr2O7 (0% transmittance≦500 nm). Photodestruction of the metal complexes was followed by HPLC analysis.

Series [5] concerns bacteriophage φ6. The note with it: cited from earlier work.
Series [6] has as its system naked infectious DNA from phages S13 and G4. The note with it: cited from earlier work.
Series [7] relates to HeLa (human cervical carcinoma) cells. The conditions noted are these: cited from earlier work.
For series [8], the system named is cell membrane. Description: Cell uptake / passage through the cell membrane. On the procedure: OCTBP uptake by KB cells. 11 mg of OCTBP was dissolved in 40 mL of PBS buffer. The solution was vortex stirred for 5 minutes to completely dissolve the solid. The solution was sterile filtered through a 0.2μ nylon syringe filter. The concentration of the solution was determined by measuring the UV absorption at 353 nm (ε353nm=1565 M^−1cm^−1).
Once the cells were 75% confluent media was decanted from the flasks and 8 mL of drug solutions were added to three flasks and 8 mL of PBS buffer solution was added to the control flask. The flasks were incubated at 37° C. for 15, 30 and 45 minutes. Control flask was incubated for 45 minutes. When the flasks were removed, they were washed with 6×10 mL of PBS buffer solution. All the liquid was carefully decanted from the flasks. 1 mL of lysing buffer (1% triton X-100) was added to each of the four flasks. The walls of the flasks were rinsed using disposable pipettes. Once all the contents of the flasks were placed into a 1.5 mL disposable centrifuge tubes (each flask yielded ˜1.2 mL), the tubes were centrifuged at 6000 rpm and at 4° C. for 30 minutes on the Fisher Model 59V high-speed centrifuge. BCA Assay was done to establish the amount of cells in each flask.
Rh content of each flask was determined using an inductively coupled plasma (ICP) instrument (AtomScan16, Thermo Elemental, Franklin, Mass.). From each centrifuge tube 1 mL was pipetted and 370 μL of concentrated HCl was added to form a 10% solution. The samples were heated in a hot water bath at 70° C. for 30 minutes. The samples were centrifuged again and the supernatant liquid was diluted to 8 mL by adding nano-pure water. The samples were analyzed for Rh content by ICP.

Series [9] has as its system KB (human nasopharingeal carcinoma) cells. The note with it: cited from earlier work.
The subject of series [10] is CT DNA. The series can be described thus: Dark interaction of DPPZPHEN with CT DNA, UV-Vis absorption titration at 380 nm. In kind it is binding, calf. On the procedure: General. The quantity of DNA was determined by the Burton assay (Burton, Biochem. J., 62:315-322 (1956)), and its rhodium content was quantitated using flame atomic absorption spectroscopy (AA). The equilibrium constant for interaction between DPPZPHEN and CT-DNA in the dark was calculated from UV-Vis absorption titration measurements at 380 nm (Wolfe et al., Biochem., 26:6392-6396 (1987); Schemel et al., Biopolymers, 10:465-480 (1971)). Cell viability was determined using the MTT assay (Denizot et al., J. Immunol. Methods, 89:271-277 (1986)). SINV was purified on sucrose gradients as previously described (Owen et al., J. Virol., 70:2757-2763 (1996)). The titer was generally 7-8 log10 pfu/mL at the beginning of each experiment.
Interaction of DPPZPHEN with DNA. […] An intrinsic binding constant of […] 3.4×10^5 M^−1 was calculated using the molar extinction coefficient at the λmax (380 nm) at each titration point.

In series [11] the test system is nucleic acid. The note with it: irradiated with light; cited from earlier work.
In series [12] the test system is DNA. Also on record: association with DNA in the dark: dose or concentration left out as unconfirmed. The conditions noted are these: cited from earlier work.
The subject of series [13] is Sindbis virus. The note with it: cited from earlier work.
For series [14], the system named is KB cells. The note with it: delivered to cells by liposome; cited from earlier work.
For series [15], the system named is Calf thymus DNA. The series can be described thus: Dark association with DNA, UV-Visible titration (Example XI). The conditions noted are these: 50 mM pH 7 I=0.15 sodium phosphate buffer (physiological condition). In kind it is binding.
Description: Preparation of DNA solution. Calf thymus DNA (Sigma) was dissolved in 50 mM, pH 7, I=0.15 sodium phosphate buffer (Physiological condition) and sonicated. The purity of the DNA was checked by monitoring the absorption spectrum and the ratio of the absorbance at 260 to 280 nm. The ratio were within the acceptable purity margin (1.8±0.1). The concentration of the Calf thymus DNA per phosphate was determined spectrophotometrically: ε253=6600 for calf thymus DNA^1. The concentration was 2.13 E-3 M.
The resulting solution was diluted 4 times with phosphate buffer. […] 0, 50 μL, 150 μL, 200 μL, 300 μL, 350 μL and 500 μL of DNA solutions were added, mixed well with a small disposable needle, and spectra were recorded again. The concentration of the species, the apparent absorbance at 337 nm, and the apparent extinction coefficients at 337 nm were determined from the absorptions spectra and tabulated in Table 1.
The apparent binding constant, Kapp was determined from the plot of [DNA]/Δεapp versus [DNA], where Δεapp=εf−εapp and Δε=εf−εb^2, where εb and εf correspond to the extinction coefficient of the DNA-bound form of the OCTBP derivatives and the extinction coefficient of the DNA-unbound OCTBP derivatives, respectively. […] Cb=(εfCtotal−Aobserved)/Δε The concentration of the DNA-unbound OCTBP derivatives (Cf) can be determined by Cf=Ctotal−Cb […]
For series [16], the system named is cells. The series can be described thus: Phototoxicity, summary statement of Example XII. It is filed as cell-based.
[17] abbreviates: 45% acetonitrile in 100 mM ammonium acetate pH 5.4.

As to `COC1=c2ccc3c4c2[N](C=C1)[Rh+]1([Cl])([Cl])([N]4C=CC=3OC)[N]2C=CC(OC)=c3ccc4c(c32)[N]1C=CC=4OC.[Cl-]` [TMOBP, cis-dichlorobis(4,7-dimethoxy-1,10-phenanthroline) rhodium(III) chloride], the elution time result in series [1] (setting [17]) is reported as “about 15 minutes”. Moreover, the “photonicking of φX-174 plasmid DNA” value in series [2] is “Only TPBP, BISTAP, BISDPPZ and BISDPPHEN complexes were found to photonick”.
For the molecule `Cc1c(C)c2c3c4c1=CC=C[N]4[Rh+]1([Cl])([Cl])([N]3C=CC=2)[N]2C=CC=c3c(C)c(C)c4c(c32)[N]1C=CC=4.[Cl-]` [56TMBP, cis-dichlorobis(5,6-dimethyl-1,10-phenanthroline) rhodium(III) chloride], in [2], the “photonicking of φX-174 plasmid DNA” value was “Only TPBP, BISTAP, BISDPPZ and BISDPPHEN complexes were found to photonick”.
For `[Cl-].[Cl][Rh+]12([Cl])([N]3C=CC=c4c3c3c(c5nc6ccccc6nc45)=CC=C[N]31)[N]1C=CC=c3c1c1c(c4nc5ccccc5nc34)=CC=C[N]12` [BISDPPZ, cis-dichlorobis{dipyrido(3,2-a: 2′,3′-c)phenazine)rhodium (III) chloride], in series [1] (setting [17]), the elution time result is given as “around 30 minutes”. Moreover, the “photonicking of φX-174 plasmid DNA” value in [2] is reported as “found to photonick”.
Turning to `[Cl-].[Cl][Rh+]12([Cl])([N]3C=CC(c4ccccc4)=c4ccc5c(c43)[N]1C=CC=5c1ccccc1)[N]1C=CC(c3ccccc3)=c3ccc4c(c31)[N]2C=CC=4c1ccccc1` [TPBP, cis-dichlorobis(4,7-diphenyl-1,10-phenanthroline) rhodium(III) chloride], the elution time result in series [1] (setting [17]) is “around 30 minutes”. For the same molecule, the “photonicking of φX-174 plasmid DNA” value in [2] was “found to photonick”.
For the molecule `CC1=c2ccc3c4c2[N](C=C1)[Rh+]1([Cl])([Cl])([N]4C=CC=3C)[N]2C=CC(C)=c3ccc4c(c32)[N]1C=CC=4C.[Cl-]` [37TMBP], the “thermal hydrolysis, rank order” value in series [3] is “OCTBP≅37TMBP>BISPHEN”. In series [2], the “photonicking of φX-174 plasmid DNA” value was “Only TPBP, BISTAP, BISDPPZ and BISDPPHEN complexes were found to photonick”. In [4], this molecule came in with a photodestruction of 6.1 % loss.
With `[Cl-].[Cl-].[Cl-].[Rh+3].c1cnc2c(c1)ccc1cccnc12.c1cnc2c(c1)ccc1cccnc12` [BISPHEN, cis-dichlorobis(1,10-phenanathroline) rhodium(III) chloride], the “activity against bacteriophage φ6” value in series [5] is recorded as “did not exhibit any activity”. The “phototoxicity to single stranded and double stranded naked infectious DNA” value in [6] is reported as “phototoxic”. For the same molecule, the uptake by cells result in [7] and in series [9] was “not taken up” throughout. In addition, the “ability to pass through the cell membrane” value in series [8] was “Neither of these compounds is able to pass through a cell membrane”. Further, the elution time entry in series [1] (20% acetonitrile in 100 mM ammonium acetate pH 5.4) is on record as “about 15 minutes”. The “interaction with CT DNA in the dark” value in series [10] is “negligible interaction”. Also, the “thermal hydrolysis, rank order” value in series [3] is “OCTBP≅37TMBP>BISPHEN”. Also, in [11], the “covalent binding to nucleic acid upon irradiation” value was “covalently binds to nucleic acid”. The “frank nicks / nicking of φX-174 supercoiled plasmid DNA upon irradiation” value in [2] (311 nm irradiation, Example VIII) is on record as “does not generate such frank nicks”. Besides, the “dark association with DNA” value in series [12] (dark) is listed as “minimal dark association”. In addition, the “association with DNA in the dark” value in series [12] (very low ionic strength) is on record as “only a minimal association”. The photodestruction result in series [4] is “virtually unaffected”. The “phototoxicity / virucidal activity against Sindbis virus” value in series [13] is reported as “minimal phototoxicity”. The “phototoxicity against KB cells” value in series [14] is listed as “marginal levels of phototoxicity”.
`[Cl-].[Cl][Rh+]12([Cl])([N]3C=CC=c4c3c3c(c5nccnc45)=CC=C[N]31)[N]1C=CC=c3c1c1c(c4nccnc34)=CC=C[N]12`: in series [1] (setting [17]), the elution time was in the range of 8 to 10 min.
As to `CC(C)OC1=c2ccc3c4c2[N](C=C1)[Rh+]1([Cl])([Cl])([N]4C=CC=3OC(C)C)[N]2C=CC(OC(C)C)=c3ccc4c(c32)[N]1C=CC=4OC(C)C.[Cl-]` [TIOBP, cis-dichlorobis(3,7-diisopropoxy-1,10 phenanthroline) rhodium(III) chloride], the elution time result in series [1] (setting [17]) is “about 15 minutes”. Moreover, the “photonicking of φX-174 plasmid DNA” value in [2] was “Only TPBP, BISTAP, BISDPPZ and BISDPPHEN complexes were found to photonick”.
On to `CN(C)C1=c2ccc3c4c2[N](C=C1)[Rh+]1([Cl])([Cl])([N]4C=CC=3N(C)C)[N]2C=CC(N(C)C)=c3ccc4c(c32)[N]1C=CC=4N(C)C.[Cl-]` [BISNMe2, cis-dichlorobis(N,N-dimethylamino)-1,10-phenanthroline} rhodium(III) chloride], for which, in series [15], the “apparent (intrinsic) binding constant Kapp” value is 2.0 E4 M. Further, the “ability to pass through the cell membrane” value in series [8] is “able to pass through the cell membrane”. The elution time result in [1] (setting [17]) is reported as “about 15 minutes”. In addition, in series [16], the phototoxicity entry was “are phototoxic”. Besides, the “photonicking of φX-174 plasmid DNA” value in series [2] is “Only TPBP, BISTAP, BISDPPZ and BISDPPHEN complexes were found to photonick”.
